# Active and inactive are the calls of the source. No rule for the calls is given here.
# Tested on: CCRIS mutagenicity, Ames/micronucleus/aberration tests
# Experiment: CCRIS mutagenicity studies
# [1] = Test System: AMES SALMONELLA TYPHIMURIUM, Strain/Indicator: TA98, Metabolic Activation: NONE, Method: PREINCUBATION
# [2] = Test System: AMES SALMONELLA TYPHIMURIUM, Strain/Indicator: TA98, Metabolic Activation: NONE, Method: STANDARD PLATE
# [3] = Test System: AMES SALMONELLA TYPHIMURIUM, Strain/Indicator: TA98, Metabolic Activation: RAT, LIVER, S-9, AROCLOR 1254, Method: STANDARD PLATE
# [4] = Test System: AMES SALMONELLA TYPHIMURIUM, Strain/Indicator: TA100, Metabolic Activation: NONE, Method: PREINCUBATION
# [5] = Test System: AMES SALMONELLA TYPHIMURIUM, Strain/Indicator: TA100, Metabolic Activation: NONE, Method: STANDARD PLATE
# [6] = Test System: AMES SALMONELLA TYPHIMURIUM, Strain/Indicator: TA100, Metabolic Activation: RAT, LIVER, S-9, AROCLOR 1254, Method: STANDARD PLATE
compound,measurement,setting,value
CN(CCO)CCO,mutagenic call,"Test System: AMES SALMONELLA TYPHIMURIUM, Strain/Indicator: TA98, Metabolic Activation: HAMSTER, LIVER, S-9, AROCLOR 1254 (10%), Method: PREINCUBATION",inactive; negative
same,mutagenic call,[1],inactive; negative
same,mutagenic call,[2],inactive; negative
same,mutagenic call,"Test System: AMES SALMONELLA TYPHIMURIUM, Strain/Indicator: TA98, Metabolic Activation: RAT, LIVER, S-9, AROCLOR 1254 (10%), Method: PREINCUBATION",inactive; negative
same,mutagenic call,[3],inactive; negative
same,mutagenic call,"Test System: AMES SALMONELLA TYPHIMURIUM, Strain/Indicator: TA100, Metabolic Activation: HAMSTER, LIVER, S-9, AROCLOR 1254 (10%), Method: PREINCUBATION",inactive; negative
same,mutagenic call,[4],inactive; negative
same,mutagenic call,[5],inactive; negative
same,mutagenic call,"Test System: AMES SALMONELLA TYPHIMURIUM, Strain/Indicator: TA100, Metabolic Activation: RAT, LIVER, S-9, AROCLOR 1254 (10%), Method: PREINCUBATION",inactive; negative
same,mutagenic call,[6],inactive; negative
same,mutagenic call,"Test System: AMES SALMONELLA TYPHIMURIUM, Strain/Indicator: TA1535, Metabolic Activation: HAMSTER, LIVER, S-9, AROCLOR 1254 (10%), Method: PREINCUBATION",inactive; negative
same,mutagenic call,"Test System: AMES SALMONELLA TYPHIMURIUM, Strain/Indicator: TA1535, Metabolic Activation: NONE, Method: PREINCUBATION",inactive; negative
same,mutagenic call,"Test System: AMES SALMONELLA TYPHIMURIUM, Strain/Indicator: TA1535, Metabolic Activation: NONE, Method: STANDARD PLATE",inactive; negative
same,mutagenic call,"Test System: AMES SALMONELLA TYPHIMURIUM, Strain/Indicator: TA1535, Metabolic Activation: RAT, LIVER, S-9, AROCLOR 1254 (10%), Method: PREINCUBATION",inactive; negative
same,mutagenic call,"Test System: AMES SALMONELLA TYPHIMURIUM, Strain/Indicator: TA1535, Metabolic Activation: RAT, LIVER, S-9, AROCLOR 1254, Method: STANDARD PLATE",inactive; negative
same,mutagenic call,"Test System: AMES SALMONELLA TYPHIMURIUM, Strain/Indicator: TA1537, Metabolic Activation: HAMSTER, LIVER, S-9, AROCLOR 1254 (10%), Method: PREINCUBATION",inactive; negative
same,mutagenic call,"Test System: AMES SALMONELLA TYPHIMURIUM, Strain/Indicator: TA1537, Metabolic Activation: NONE, Method: PREINCUBATION",inactive; negative
same,mutagenic call,"Test System: AMES SALMONELLA TYPHIMURIUM, Strain/Indicator: TA1537, Metabolic Activation: NONE, Method: STANDARD PLATE",inactive; negative
same,mutagenic call,"Test System: AMES SALMONELLA TYPHIMURIUM, Strain/Indicator: TA1537, Metabolic Activation: RAT, LIVER, S-9, AROCLOR 1254 (10%), Method: PREINCUBATION",inactive; negative
same,mutagenic call,"Test System: AMES SALMONELLA TYPHIMURIUM, Strain/Indicator: TA1537, Metabolic Activation: RAT, LIVER, S-9, AROCLOR 1254, Method: STANDARD PLATE",inactive; negative
same,mutagenic call,"Test System: AMES SALMONELLA TYPHIMURIUM, Strain/Indicator: TA1538, Metabolic Activation: NONE, Method: STANDARD PLATE",inactive; negative
same,mutagenic call,"Test System: AMES SALMONELLA TYPHIMURIUM, Strain/Indicator: TA1538, Metabolic Activation: RAT, LIVER, S-9, AROCLOR 1254, Method: STANDARD PLATE",inactive; negative
same,mutagenic call,"Test System: CHINESE HAMSTER OVARY, Strain/Indicator: CHO-K1-BH4, Metabolic Activation: NONE",inactive; negative
same,mutagenic call,"Test System: CHINESE HAMSTER OVARY, Strain/Indicator: CHO-K1-BH4, Metabolic Activation: RAT, LIVER, S-9, AROCLOR 1254",inactive; negative
COP(=O)(OC)OC,mutagenic call,"Test System: AMES SALMONELLA TYPHIMURIUM, Strain/Indicator: TA98, Metabolic Activation: HAMSTER, LIVER, S-9, AROCLOR 1254 (30%), Method: PREINCUBATION",inactive; negative
same,mutagenic call,[1],inactive; negative
same,mutagenic call,"Test System: AMES SALMONELLA TYPHIMURIUM, Strain/Indicator: TA98, Metabolic Activation: RAT, LIVER, S-9, AROCLOR 1254 (30%), Method: PREINCUBATION",inactive; negative
same,mutagenic call,"Test System: AMES SALMONELLA TYPHIMURIUM, Strain/Indicator: TA100, Metabolic Activation: HAMSTER, LIVER, S-9, AROCLOR 1254 (30%), Method: PREINCUBATION",active; positive
same,mutagenic call,[4],inactive; negative
same,mutagenic call,"Test System: AMES SALMONELLA TYPHIMURIUM, Strain/Indicator: TA100, Metabolic Activation: RAT, LIVER, S-9, AROCLOR 1254 (30%), Method: PREINCUBATION",active; positive
same,mutagenic call,"Test System: AMES SALMONELLA TYPHIMURIUM, Strain/Indicator: TA102, Metabolic Activation: NONE, Method: STANDARD PLATE",inactive; negative
same,mutagenic call,"Test System: AMES SALMONELLA TYPHIMURIUM, Strain/Indicator: TA2638, Metabolic Activation: NONE, Method: STANDARD PLATE",active; positive
same,mutagenic call,"Test System: E. COLI, Strain/Indicator: WP2 (PKM101), Metabolic Activation: NONE, Method: STANDARD PLATE",active; positive
same,mutagenic call,"Test System: E. COLI, Strain/Indicator: WP2 UVRA (PKM101), Metabolic Activation: NONE, Method: STANDARD PLATE",active; positive
Nc1ccc2cccc3c2c1-c1ccccc1-3,mutagenic call,"Test System: AMES SALMONELLA TYPHIMURIUM, Strain/Indicator: TA98, Metabolic Activation: RAT, LIVER, S-9, AROCLOR 1254 (2 OR 4%), Method: STANDARD PLATE",active; positive
same,mutagenic call,"Test System: AMES SALMONELLA TYPHIMURIUM, Strain/Indicator: TA100, Metabolic Activation: RAT, LIVER, S-9, AROCLOR 1254 (4%), Method: STANDARD PLATE",active; positive
same,mutagenic call,"Test System: AMES SALMONELLA TYPHIMURIUM, Strain/Indicator: TA1535, Metabolic Activation: RAT, LIVER, S-9, AROCLOR 1254 (4%), Method: STANDARD PLATE",inactive; negative
same,mutagenic call,"Test System: AMES SALMONELLA TYPHIMURIUM, Strain/Indicator: TA1537, Metabolic Activation: RAT, LIVER, S-9, AROCLOR 1254 (4%), Method: STANDARD PLATE",active; positive
NC(=O)CCC(=O)Nc1ccc(Cl)c(Cl)c1Cl,mutagenic call,[2],inactive; negative
same,mutagenic call,[3],inactive; negative
same,mutagenic call,[5],inactive; negative
same,mutagenic call,[6],inactive; negative
CC(=O)Nc1ccc(CC(=O)O)cc1,mutagenic call,"Test System: AMES SALMONELLA TYPHIMURIUM, Strain/Indicator: TA98, Metabolic Activation: NONE",inactive; negative
same,mutagenic call,"Test System: AMES SALMONELLA TYPHIMURIUM, Strain/Indicator: TA98, Metabolic Activation: RAT, LIVER, S-9, AROCLOR 1254",inactive; negative
same,mutagenic call,"Test System: AMES SALMONELLA TYPHIMURIUM, Strain/Indicator: TA100, Metabolic Activation: NONE",inactive; negative
same,mutagenic call,"Test System: AMES SALMONELLA TYPHIMURIUM, Strain/Indicator: TA100, Metabolic Activation: RAT, LIVER, S-9, AROCLOR 1254",inactive; negative
same,mutagenic call,"Test System: AMES SALMONELLA TYPHIMURIUM, Strain/Indicator: TA1535, Metabolic Activation: NONE",inactive; negative
same,mutagenic call,"Test System: AMES SALMONELLA TYPHIMURIUM, Strain/Indicator: TA1535, Metabolic Activation: RAT, LIVER, S-9, AROCLOR 1254",inactive; negative
same,mutagenic call,"Test System: AMES SALMONELLA TYPHIMURIUM, Strain/Indicator: TA1537, Metabolic Activation: NONE",inactive; negative
same,mutagenic call,"Test System: AMES SALMONELLA TYPHIMURIUM, Strain/Indicator: TA1537, Metabolic Activation: RAT, LIVER, S-9, AROCLOR 1254",inactive; negative
same,mutagenic call,"Test System: AMES SALMONELLA TYPHIMURIUM, Strain/Indicator: TA1538, Metabolic Activation: NONE",inactive; negative
same,mutagenic call,"Test System: AMES SALMONELLA TYPHIMURIUM, Strain/Indicator: TA1538, Metabolic Activation: RAT, LIVER, S-9, AROCLOR 1254",inactive; negative
same,mutagenic call,"Test System: E. COLI, Strain/Indicator: WP2, Metabolic Activation: NONE",inactive; negative
same,mutagenic call,"Test System: E. COLI, Strain/Indicator: WP2, Metabolic Activation: RAT, LIVER, S-9, AROCLOR 1254",inactive; negative
same,mutagenic call,"Test System: E. COLI, Strain/Indicator: WP2 UVRA, Metabolic Activation: NONE",inactive; negative
same,mutagenic call,"Test System: E. COLI, Strain/Indicator: WP2 UVRA, Metabolic Activation: RAT, LIVER, S-9, AROCLOR 1254",inactive; negative
OCc1ccc(C(F)(F)F)cc1,mutagenic call,[5],inactive; negative

# From PubChem BioAssay AID1259407 (Chemical Carcinogenesis Research Information System (CCRIS), 2018)
